Assay results taken from publication PMC9306553 (Angewandte Chemie (International Ed. in English), 2022).
Values belong to the molecule of their own block, whether it stands above or below them.

Tests used:
[1] = target: T1, CCR9 (Homo sapiens, UniProt P51686); format: cell-based; settings: for effect on the CCR9 degradation by 13 (ELISA): co-treatment with 13, HEK293T cells transiently expressing CCR9
T1 sequence (P51686 1-357 isoform P51686-2): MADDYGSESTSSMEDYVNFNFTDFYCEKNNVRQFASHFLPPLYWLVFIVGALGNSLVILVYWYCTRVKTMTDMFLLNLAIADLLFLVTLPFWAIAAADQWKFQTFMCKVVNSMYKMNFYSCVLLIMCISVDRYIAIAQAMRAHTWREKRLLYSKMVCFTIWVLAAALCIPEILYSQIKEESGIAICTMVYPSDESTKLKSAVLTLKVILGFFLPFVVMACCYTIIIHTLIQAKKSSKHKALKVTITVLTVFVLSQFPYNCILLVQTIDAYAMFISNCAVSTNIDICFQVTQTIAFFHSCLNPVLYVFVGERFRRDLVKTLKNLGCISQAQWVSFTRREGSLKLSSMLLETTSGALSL

[2] = target: T1, CCR9; test: biochemical; format: binding; settings: CCR9_Nluc membranes; for Ki: tracer 3a 100 nM
[3] = target: T1, CCR9; test: cell-based; settings: tracer 3a 120 nM, live HEK293T cells expressing CCR9_Nluc
[4] = target: T1, CCR9; test: cell-based; settings: HEK293T cells, stimulated with CCL25 31.6 nM
[5] = target: T2, CCR9 (Homo sapiens, UniProt P51686); test: cell-based; format: cell-based; settings: for IC50: IC50 β-arrestin2 recruitment, HEK293T cells, stimulated with CCL25 31.6 nM
T2 sequence (P51686 1-369): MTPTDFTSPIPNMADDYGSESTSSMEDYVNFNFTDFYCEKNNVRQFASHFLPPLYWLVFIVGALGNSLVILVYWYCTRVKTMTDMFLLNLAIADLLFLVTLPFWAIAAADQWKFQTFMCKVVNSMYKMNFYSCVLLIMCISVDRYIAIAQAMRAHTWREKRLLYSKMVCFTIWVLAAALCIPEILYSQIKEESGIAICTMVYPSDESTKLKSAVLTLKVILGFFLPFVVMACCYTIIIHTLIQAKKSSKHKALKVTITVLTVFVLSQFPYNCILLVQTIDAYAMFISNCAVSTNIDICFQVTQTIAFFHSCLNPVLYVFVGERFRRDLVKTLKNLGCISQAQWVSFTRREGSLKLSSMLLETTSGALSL

[6] = target: T3, CCR2 (Homo sapiens, UniProt P41597); test: BRET-based G protein activation assay, CCR2; format: cell-based; settings: stimulated with CCL2 10 nM
T3 sequence (P41597 1-360 isoform P41597-2): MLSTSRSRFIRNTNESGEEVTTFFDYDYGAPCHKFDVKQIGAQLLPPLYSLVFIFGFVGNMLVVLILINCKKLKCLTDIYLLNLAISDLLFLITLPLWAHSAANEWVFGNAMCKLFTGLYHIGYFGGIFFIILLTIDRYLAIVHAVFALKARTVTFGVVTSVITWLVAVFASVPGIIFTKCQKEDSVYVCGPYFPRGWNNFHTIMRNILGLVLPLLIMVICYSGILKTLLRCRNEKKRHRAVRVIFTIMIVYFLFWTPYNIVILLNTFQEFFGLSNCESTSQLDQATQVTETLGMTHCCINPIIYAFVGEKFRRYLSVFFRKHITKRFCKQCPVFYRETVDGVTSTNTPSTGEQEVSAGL

[7] = pKi NanoBRET (membranes), mean±SEM
[8] = pKi NanoBRET (in cells), mean±SEM

effect on the CCR9 degradation by 13 (ELISA) [1]: can be counteracted
Molecule: Cc1ncsc1-c1ccc(CNC(=O)[C@@H]2C[C@@H](O)CN2C(=O)[C@@H](N)C(C)(C)C)cc1 [(S,R,S)‐AHPC]
effect on CCR9 levels (ELISA) ([1]; HEK293T cells transiently expressing CCR9, 14 h treatment): did not result in reduction of CCR9 levels

effect on the CCR9 degradation by 13 (ELISA) [1]: can be reduced
Molecule: NS(=O)(=O)OC[C@@H]1C[C@@H](n2ccc3c(N[C@H]4CCc5ccccc54)ncnc32)C[C@@H]1O [MLN4924]

Ki ([2]; Ki NanoBRET (membranes)): 3.51 nM
Ki [2, 7]: 3.24 nM
Ki ([3]; Ki NanoBRET (in cells)): 11.5 nM
Ki [3, 8]: 10.5 nM
IC50 ([4]; IC50 Gαo activation): 14.9 nM
IC50 ([4]; pIC50 Gαo activation, mean±SEM): 14.8 nM
IC50 [5]: 17.4 nM
Molecule: CC(C)(C)c1ccc(S(=O)(=O)Nc2ccc(Cl)cc2-c2nccnc2N)cc1 [compound 10]

Ki ([2]; Ki NanoBRET (membranes)): 13 nM
Ki [2, 7]: 12.3 nM
Ki ([3]; Ki NanoBRET (in cells)): 20.5 nM
Ki [3, 8]: 19.1 nM
IC50 ([4]; IC50 Gαo activation): 256 nM
IC50 ([4]; pIC50 Gαo activation, mean±SEM): 257 nM
IC50 [5]: 166 nM
Molecule: CC(C)(C)c1ccc(S(=O)(=O)Nc2ccc(Cl)cc2-c2cccnc2N)cc1 [compound 11]

increase in potency compared to 1, β-arrestin recruitment ([5]; 12 versus 1): ≈ 10 fold
inhibition of CCR2 (G protein activation) [6]: no inhibition
Molecule: CC(C)(C)c1ccc(S(=O)(=O)Nc2ccc(Cl)cc2-c2cncnc2N)cc1 [compound 12]

effect on the binding of 3a to the IABS ([2]; 3a 100 nM, prevented binding and displacement setup): did not affect the binding
B1: CCL25: orthosteric CCR9 agonist (protein, UniProt O15444 24-150, looked up)
C-C motif chemokine 25: QGVFEDCCLAYHYPIGWAVLRRAWTYRIQEVSGSCNLPAAIFYLPKRHRKVCGNPKSREVQRAMKLLDARNKVFAKLHHNTQTFQAGPHAVKKLSSGNSKLSSSKFSNPISSSKRNVSLLISANSGL
